Data reported in patent US10336702B2, “Pharmaceutically active compounds” (BERGENBIO ASA, priority 2015, dated 2019).

What was measured:
p-Akt3 in WM115 cells = target: T1, p-Akt3 in WM115 cells (Homo sapiens, UniProt Q9Y243); assay: Phospho-Akt cellular SureFire assay, p-Akt3 in WM115 cells; assay type: cell-based; conditions: insulin stimulated, read-out: Biological Assay 2 IC50 (nM) Akt3 WM115
T1 construct: SureFire assays to detect cellular p-Akt1, p-Akt2 and p-Akt3 levels in WM115 cells (Akt2/3) and LNCaP cells (Akt1); endogenous in cells; host or cells: WM115 (ECACC 91061232), insulin-stimulated
Description: (§1) Biological Assay 2: Phospho-Akt (p-Akt) Cellular SureFire Assays
(§2) The following describes SureFire assays to detect cellular p-Akt1, p-Akt2 and p-Akt3 levels in WM115 cells (Akt2/3) and LNCaP cells (Akt1). In the case of Akt2 and Akt3, Streptavidin-coated donor beads capture a biotinylated anti-mouse antibody that in turn recognises a mouse total Akt antibody which is specific to each isoform. The protein A-conjugated acceptor beads capture an antibody that recognises the phosphoprotein. Similarly in the Akt1 kit, the donor and acceptor beads are used to capture each antibody pair consisting of an antibody that specifically recognises Akt1 as well as an antibody that recognises the phosphoprotein. In each case, close proximity of the beads allows energy transfer from donor to acceptor.
(§3) Custom kit from TGR/Perkin Elmer for Akt2/3 containing anti-(pThr308)Akt antibody and biotinylated anti-mouse capture antibody.
Total Akt3 antibody (R&D Systems MAB 1463)
(§4) WM115 cells (ECACC, 91061232) cultured in MEM culture media (M2279) supplemented with 2 mM L-glutamine (G7513), 1% non-essential amino acids (M7145), 1% sodium pyruvate (S8636) and 10% FBS (F0804)
(§5) Cell treatment: 1×10^5 WM115 cells or 5×10^4 LNCaP cells were seeded into each well of a 96 well poly-D-Lysine coated tissue culture plate and incubated overnight at 37° C.+5% CO2. Media was removed from cells and replaced with assay buffer consisting of the full culture media described above but with 0.1% FBS instead of 10% FBS. Only WM115 cells were stimulated at 37° C.+5% CO2 for 10 min with 5 μL insulin at a final concentration of 100 nM. Cells were incubated with 5 μL of test compound at a final DMSO concentration of 0.3% for 15 min at 37° C.+5% CO2. Cell lysis was carried out according to kit instructions.
(§6) Assay format (performed in subdued lighting): 4 μL cell lysate and 5 μL reaction buffer were incubated together in the dark at room temperature for 2 h. Reaction buffer was supplemented with a 1/5 dilution of activation buffer, a 1/50 dilution of acceptor beads and in the case of the custom kits, antibodies were added at dilutions of 1/20,000 for Akt2 and 1/2,000 for Akt3.
(§7) 2 μL dilution buffer, supplemented with a 1/20 dilution of donor beads was added to each well and incubated for a further 2 h. Plates were read with the EnVision® Multilabel Plate Reader and using the AlphaScreen settings. Compound IC50 was determined using a 4-parameter equation.

Akt3 = target: T2, Akt3 (Homo sapiens, UniProt Q9Y243); assay: Akt activation assay (PDK1-mediated activation, LANCE Ultra crosstide TR-FRET), Akt3; assay type: biochemical; conditions: read-out: Biological Assay 1 IC50 (nM) Akt3
T2 construct: unspecified tag, removed (detagged) (cleaved yes); purchased SignalChem and Proteros (Akt3); Merck Millipore (PDK1) 14-452 (PDK1); none given for Akt3
Description: (§8) Biological Assay 1: Akt Activation Assay
(§9) Addition of a Europium-labelled antibody specific to the phosphopeptide allows energy transfer from the Europium donor to the Ultra Ulight™ acceptor if close enough in proximity.
(§10) Full length active His6-tagged PDK1 was obtained from Merck Millipore (14-452).
(§11) 1× assay buffer (AB): 50 mM HEPES pH 7.5, 1 mM EGTA, 10 mM MgCl2, 0.01% Tween. Immediately before use, DTT to a concentration of 2 mM was added.
(§12) To prepare lipid vesicles: 1 mg/ml PtdIns(3,4,5)P3 solution (in 10 mM HEPES 7.5) was added to 16.7 mg/ml DOPS/DOPC mixture (in 10 mM HEPES pH 7.5) in a ratio of 1:8.3. MilliQ water was added to the solution to generate concentrations of 400 μM DOPS, 400 μM DOPC and 40 μM PtdIns(3,4,5)P3. The mixture was subjected to 5× freeze/thaw cycles and aliquots stored at −20° C.
(§13) 5 μL enzyme in 1×AB was incubated with 2.5 μL test compound. To start the reaction 2.5 μL reaction mix was added which consisted of PDK1, lipid preparations, crosstide and ATP in 1×AB. Final assay concentrations were as follows: 1% DMSO, 5 nM SignalChem Akt1/15 nM SignalChem Akt2/3 nM Signalchem Akt3/5 nM Proteros Akt1/5 nM proteros Akt2/5 nM Proteros Akt3, 5 nM PDK1, 5.5 μM DOPS, 5.5 μM DOPC, 0.55 μM PtdIns(3,4,5)P3, 100 μM ATP, 100 nM LANCE® Ultra Ulight™-Crosstide. After 30 min, the reaction was stopped using 5 μL 40 μM EDTA in 1× Detection buffer for 5 min. For detection, 5 μL 8 nM LANCE® Ultra Europium-anti-phospho-Crosstide antibody in 1× Detection buffer was added to each well and incubated for 1 h. Plates read with the EnVision® Multilabel Plate Reader, excitation at 320 nm and emission at 665 nm and 615 nm. Compound IC50 was determined using a 4-parameter equation.

p-Akt2 in WM115 cells = target: T3, p-Akt2 in WM115 cells (Homo sapiens, UniProt P31751); assay: Phospho-Akt cellular SureFire assay, p-Akt2 in WM115 cells; assay type: cell-based; conditions: insulin stimulated, read-out: Biological Assay 2 IC50 (nM) Akt2 WM115
T3 construct: SureFire assays to detect cellular p-Akt1, p-Akt2 and p-Akt3 levels in WM115 cells (Akt2/3) and LNCaP cells (Akt1); endogenous in cells; host or cells: WM115 (ECACC 91061232), insulin-stimulated
Description: as §1, §2, §3
Total Akt2 antibody (NEB UK, 5239)
as §4, §5, §6, §7

Akt2 = target: T4, Akt2 (Homo sapiens, UniProt P31751); assay: Akt activation assay (PDK1-mediated activation, LANCE Ultra crosstide TR-FRET), Akt2; assay type: biochemical; conditions: read-out: Biological Assay 1 IC50 (nM) Akt2
T4 construct: unspecified tag, removed (detagged) (cleaved yes); purchased SignalChem and Proteros (Akt2); Merck Millipore (PDK1) 14-452 (PDK1); none given for Akt2
Description: as §8, §9, §10, §11, §12, §13

Akt1 = target: T5, Akt1 (Homo sapiens, UniProt P31749); assay: Akt activation assay (PDK1-mediated activation, LANCE Ultra crosstide TR-FRET), Akt1; assay type: biochemical; conditions: read-out: Biological Assay 1 IC50 (nM) Akt1
T5 construct: unspecified tag, removed (detagged) (cleaved yes); purchased SignalChem and Proteros (Akt1); Merck Millipore (PDK1) 14-452 (PDK1); none given for Akt1
Description: as §8, §9, §10, §11, §12, §13

T4 sequence (P31751 whole entry): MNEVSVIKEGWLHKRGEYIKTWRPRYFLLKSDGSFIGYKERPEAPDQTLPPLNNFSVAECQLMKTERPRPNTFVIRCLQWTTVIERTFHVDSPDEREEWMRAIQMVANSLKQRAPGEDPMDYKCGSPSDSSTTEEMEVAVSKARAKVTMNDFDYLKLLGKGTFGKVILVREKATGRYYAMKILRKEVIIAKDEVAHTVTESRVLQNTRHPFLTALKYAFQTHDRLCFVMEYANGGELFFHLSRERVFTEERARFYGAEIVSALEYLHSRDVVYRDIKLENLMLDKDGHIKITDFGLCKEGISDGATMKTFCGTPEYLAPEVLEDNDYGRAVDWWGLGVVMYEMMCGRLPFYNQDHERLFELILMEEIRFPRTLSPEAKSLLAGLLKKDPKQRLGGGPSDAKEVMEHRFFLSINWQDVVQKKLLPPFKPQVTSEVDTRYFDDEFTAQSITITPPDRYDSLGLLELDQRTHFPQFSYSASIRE
T2 sequence (Q9Y243 whole entry): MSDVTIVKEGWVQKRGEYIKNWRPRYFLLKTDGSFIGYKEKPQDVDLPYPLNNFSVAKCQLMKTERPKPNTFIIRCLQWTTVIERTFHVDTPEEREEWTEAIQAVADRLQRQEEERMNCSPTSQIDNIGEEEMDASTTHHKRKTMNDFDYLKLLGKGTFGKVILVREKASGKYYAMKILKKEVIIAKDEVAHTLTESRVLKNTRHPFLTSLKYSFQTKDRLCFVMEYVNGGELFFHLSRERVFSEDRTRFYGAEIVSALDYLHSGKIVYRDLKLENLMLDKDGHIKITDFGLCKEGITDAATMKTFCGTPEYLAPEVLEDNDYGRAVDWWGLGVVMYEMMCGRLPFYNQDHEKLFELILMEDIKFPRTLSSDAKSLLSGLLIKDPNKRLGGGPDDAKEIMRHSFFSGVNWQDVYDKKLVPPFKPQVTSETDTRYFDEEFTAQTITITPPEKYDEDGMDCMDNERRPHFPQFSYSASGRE
T5 sequence (P31749 whole entry): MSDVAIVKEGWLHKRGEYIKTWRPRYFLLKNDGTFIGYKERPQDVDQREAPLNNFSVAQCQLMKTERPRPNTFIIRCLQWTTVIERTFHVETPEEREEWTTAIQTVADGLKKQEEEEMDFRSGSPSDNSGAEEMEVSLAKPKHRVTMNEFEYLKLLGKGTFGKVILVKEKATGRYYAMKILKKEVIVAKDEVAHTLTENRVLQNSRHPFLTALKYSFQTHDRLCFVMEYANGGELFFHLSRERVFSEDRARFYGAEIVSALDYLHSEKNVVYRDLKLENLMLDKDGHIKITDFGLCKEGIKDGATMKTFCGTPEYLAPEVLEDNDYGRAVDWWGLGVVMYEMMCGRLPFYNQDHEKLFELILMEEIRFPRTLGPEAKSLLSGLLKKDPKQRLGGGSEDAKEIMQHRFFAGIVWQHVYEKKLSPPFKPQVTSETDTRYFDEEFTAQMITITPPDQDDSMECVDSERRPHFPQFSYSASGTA
T3 sequence (P31751 whole entry): as the sequence (P31751 whole entry) above
T1 sequence (Q9Y243 whole entry): as the sequence (Q9Y243 whole entry) above

| Compound | IC50 (p-Akt3 in WM115 cells) [nM] | IC50 (Akt3) [nM] | IC50 (p-Akt2 in WM115 cells) [nM] | IC50 (Akt2) [nM] | IC50 (Akt1) [nM] |
| --- | --- | --- | --- | --- | --- |
| COC(=O)N(C)C1CCC(CC(=O)Nc2cnc(-c3ccc(C4(N)CC(F)C4)cc3)c(-c3ccsc3)c2)CC1 (stereo not drawn) [Example A66, Methyl (trans-4-(2-((6-(4-(trans-1-amino-3-fluorocyclobutyl)phenyl)-5-(thiophen-3-yl)pyridin-3-yl)amino)-2-oxoethyl)cyclohexyl)(methyl)carbamate] | 420 | 44 | 10000 | 1100 | – |
| C[C@@H]1CC(CC(=O)Nc2cnc(-c3ccc(C4(N)COC4)cc3)c(-c3ccccc3)c2)C[C@H](C)O1 (stereo partly drawn) [Example 22, N-(6-(4-(3-aminooxetan-3-yl)phenyl)-5-phenylpyridin-3-yl)-2-((2r,6s)-2,6-dimethyltetrahydro-2H-pyran-4-yl)acetamide] | – | 210 | – | 2600 | > 30000 |
| Cc1nncn1[C@H]1CC[C@H](CC(=O)Nc2cnc(-c3ccc(C(C)(C)N)cc3)c(-c3ccccc3)c2)CC1 [Example 23, N-(6-(4-(2-aminopropan-2-yl)phenyl)-5-phenylpyridin-3-yl)-2-(trans-4-(3-methyl-4H-1,2,4-triazol-4-yl)cyclohexyl)acetamide] | – | 430 | – | 11000 | > 30000 |
| CC(=O)N(C)[C@H]1CC[C@H](CC(=O)Nc2cnc(-c3ccc([C@H](N)C(F)F)cc3)c(-c3ccccc3)c2)CC1 [Example 11, N-(6-(4-((S)-1-amino-2,2-difluoroethyl)phenyl)-5-phenylpyridin-3-yl)-2-(trans-4-(N-methylacetamido)cyclohexyl)acetamide] | – | 630 | – | > 20000 | > 30000 |
| CC(C)(C(=O)N[C@H]1CC[C@H](CC(=O)Nc2cnc(-c3ccc(C4(N)CCC4)cc3)c(-c3cccnc3)c2)CC1)C(F)(F)F [Example 20, N-(trans-4-(2-((2-(4-(1-aminocyclobutyl)phenyl)-[3,3′-bipyridin]-5-yl)amino)-2-oxoethyl)cyclohexyl)-3,3,3-trifluoro-2,2-dimethylpropanamide] | – | 6800 | – | > 15000 | > 30000 |
| CC(=O)N[C@H]1CC[C@H](CC(=O)Nc2cnc(-c3ccc(C4(N)CC(F)(F)C4)cc3)c(-c3ccccc3)c2)CC1 [Example 25, 2-(trans-4-acetamidocyclohexyl)-N-(6-(4-(1-amino-3,3-difluorocyclobutyl)phenyl)-5-phenylpyridin-3-yl)acetamide] | – | 170 | – | 270 | 8300 |
| NC1(c2ccc(-c3ncc(NC(=O)C[C@H]4CC[C@H](NC(=O)C(F)F)CC4)cc3-c3ccccc3)cc2)CC1 [Example A42, N-(trans-4-(2-((6-(4-(1-aminocyclopropyl)phenyl)-5-phenylpyridin-3-yl)amino)-2-oxoethyl)cyclohexyl)-2,2-difluoroacetamide] | – | 280 | – | 810 | 6900 |
| NC1(c2ccc(-c3ncc(NC(=O)C[C@H]4CC[C@H](NS(=O)(=O)C5CC5)CC4)cc3-c3ccccc3)cc2)COC1 [Example 37, N-(6-(4-(3-aminooxetan-3-yl)phenyl)-5-phenylpyridin-3-yl)-2-(trans-4-(cyclopropanesulfonamido)cyclohexyl)acetamide] | – | 56 | – | 590 | > 30000 |
| CN([C@H]1CC[C@H](CC(=O)Nc2cnc(-c3ccc(C4(N)CCC4)cc3)c(-c3ccccc3F)c2)CC1)S(C)(=O)=O [Example A16, N-(6-(4-(1-aminocyclobutyl)phenyl)-5-(2-fluorophenyl)pyridin-3-yl)-2-(trans-4-(N-methylmethylsulfonamido)cyclo-hexyl)acetamide] | – | 210 | – | 260 | 9800 |
| CC(C)(C)C(=O)N[C@H]1CC[C@H](CC(=O)Nc2cnc(-c3ccc(C4(N)CC4)cc3)c(-c3ccccc3)c2)CC1 [Example A43, N-(trans-4-(2-((6-(4-(1-aminocyclopropyl)phenyl)-5-phenylpyridin-3-yl)amino)-2-oxoethyl)cyclohexyl)pivalamide] | – | 300 | – | 520 | > 22000 |

More lines, now with the values ahead:

| IC50 (p-Akt3 in WM115 cells) [nM] | IC50 (Akt3) [nM] | IC50 (p-Akt2 in WM115 cells) [nM] | IC50 (Akt2) [nM] | IC50 (Akt1) [nM] | Compound |
| --- | --- | --- | --- | --- | --- |
| 57 | – | 3000 | – | – | COC(=O)N(C)[C@H]1CC[C@H](CC(=O)Nc2cc(-c3ccsc3)c(-c3ccc([C@]4(N)C[C@](C)(O)C4)cc3)cn2)CC1 [Example 89, Methyl (trans-4-(2-((5-(4-(trans-1-amino-3-hydroxy-3-methylcyclobutyl)phenyl)-4-(thiophen-3-yl)pyridin-2-yl)amino)-2-oxoethyl)cyclohexyl)(methyl)carbamate] |
| – | 15 | – | 140 | 3100 | NC1(c2ccc(-c3ncc(NC(=O)C[C@H]4CC[C@H](NC(=O)C5CC5)CC4)cc3-c3ccccc3)cc2)CCC1 [Example A39, N-(trans-4-(2-((6-(4-(1-aminocyclobutyl)phenyl)-5-phenylpyridin-3-yl)amino)-2-oxoethyl)cyclohexyl)cyclopropane-carboxamide] |
| – | 51 | – | 710 | 12000 | CC(=O)N(C)[C@H]1CC[C@H](CC(=O)Nc2cnc(-c3ccc([C@@H](C)N)cc3)c(-c3ccccc3)c2)CC1 [Example 8, N-(6-(4-((R)-1-aminoethyl)phenyl)-5-phenylpyridin-3-yl)-2-(trans-4-(N-methylacetamido)cyclohexyl)acetamide] |
| – | 1400 | – | 11000 | > 30000 | CN(C(=O)C1(C)CC1)[C@H]1CC[C@H](CC(=O)Nc2cnc(-c3ccc(C(C)(C)N)cc3)c(-c3ccccc3)c2)CC1 [Example A31, N-(trans-4-(2-((6-(4-(2-aminopropan-2-yl)phenyl)-5-phenylpyridin-3-yl)amino)-2-oxoethyl)cyclohexyl)-N,1-dimethylcyclopropane-1-carboxamide] |
| – | 130 | – | 1400 | > 30000 | CC(C)(C(=O)N[C@H]1CC[C@H](CC(=O)Nc2cnc(-c3ccc(C4(N)COC4)cc3)c(-c3ccccc3)c2)CC1)C(F)(F)F [Example A6, N-(trans-4-(2-((6-(4-(3-aminooxetan-3-yl)phenyl)-5-phenylpyridin-3-yl)amino)-2-oxoethyl)cyclohexyl)-3,3,3-trifluoro-2,2-dimethylpropanamide] |
